Experimental data from ChEMBL document CHEMBL1177826, “Synthesis of isosteric selenium analog of the PPARbeta/delta agonist GW501516 and comparison of biological activity” (Bioorg Med Chem Lett, 2010).
Calls of active or inactive are those of the source. The calls are words filed in the database; no cut-off is given here.

Legend:
[1] = target: T1, PPAR delta/gamma (Homo sapiens) (UniProt P37231+Q03181); assay: Activation of […] in human HaCaT cells assessed as induction of ANGPTL4 expression by PCR; assay type: cell-based
[2] = target: T1, PPAR delta/gamma (Homo sapiens); assay: Activation of […] in human HaCaT cells assessed as inhibition of cellular proliferation at 10 uM after 72 hrs; assay type: cell-based

T1 sequence (P37231 whole entry, looked up): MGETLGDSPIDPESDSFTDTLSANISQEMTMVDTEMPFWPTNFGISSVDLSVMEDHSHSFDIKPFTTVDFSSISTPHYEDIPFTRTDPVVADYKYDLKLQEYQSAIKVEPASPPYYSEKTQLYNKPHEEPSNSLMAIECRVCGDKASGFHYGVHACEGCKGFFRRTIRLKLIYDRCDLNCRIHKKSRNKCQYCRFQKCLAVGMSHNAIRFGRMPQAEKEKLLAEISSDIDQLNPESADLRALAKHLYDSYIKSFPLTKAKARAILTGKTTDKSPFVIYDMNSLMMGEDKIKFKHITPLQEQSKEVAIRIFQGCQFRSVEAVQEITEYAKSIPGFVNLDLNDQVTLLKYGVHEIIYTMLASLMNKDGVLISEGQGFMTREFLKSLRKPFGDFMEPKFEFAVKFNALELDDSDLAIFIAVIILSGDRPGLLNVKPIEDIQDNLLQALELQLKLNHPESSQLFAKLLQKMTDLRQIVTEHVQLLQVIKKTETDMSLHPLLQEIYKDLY
T1 sequence (Q03181 whole entry, looked up): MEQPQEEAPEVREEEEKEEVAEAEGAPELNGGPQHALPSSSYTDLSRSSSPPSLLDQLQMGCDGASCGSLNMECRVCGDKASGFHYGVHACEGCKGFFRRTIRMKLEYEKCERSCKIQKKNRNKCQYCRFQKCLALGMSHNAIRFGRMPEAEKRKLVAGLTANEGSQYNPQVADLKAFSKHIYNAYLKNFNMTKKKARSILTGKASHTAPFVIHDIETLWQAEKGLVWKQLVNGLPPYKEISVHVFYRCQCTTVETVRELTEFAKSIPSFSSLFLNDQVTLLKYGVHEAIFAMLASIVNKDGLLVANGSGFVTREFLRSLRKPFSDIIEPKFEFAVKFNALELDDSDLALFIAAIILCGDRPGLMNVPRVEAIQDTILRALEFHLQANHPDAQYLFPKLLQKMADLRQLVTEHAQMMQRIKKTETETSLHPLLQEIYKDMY

## Cc1cc([Se]Cc2sc(-c3ccc(C(F)(F)F)cc3)nc2C)ccc1OCC(=O)O
[1]
  Activity: Active
[2]
  Activity: Active
